This is an account of results in US20160378909A1, “PROCESS FOR IDENTIFYING CULTURE CONDITIONS FOR A CELL OR ORGANISM” (GLAXOSMITHKLINE BIOLOGICALS SA, priority 2013, published 2016).

This assay concerns Bordetella pertussis. The assay is described as follows: microbe, parasite or virus in culture. Format: cell-based. To be noted: for activity at 6000 µg/mL / activity at 1 µg/mL / activity at 10 µg/mL / activity at 0.1 µg/mL / activity at 0.2 µg/mL / activity at 2 µg/mL: Bordetella pertussis. As for the experimental part: Cells were harvested by centrifugation, washed twice with NaCl 0.9% (w/v), and resuspended in fresh medium (de novo minimal CDM; see composition in Table 1) at a theoretical OD650 nm of 0.5, as calculated from the OD650 nm of the culture before harvest. 20 μl of this cell suspension were used to inoculate each well of a 96-well microtiter plate filled with 180 μl of de novo minimal CDM. Only the inner wells of the plate were used for cultures, in order to minimize evaporation, and two controls were included, in which the supplement solution was replaced with water.
The plate was then incubated for 7 days at 35° C. in a Biotek Synergy H1 reader with constant shaking, and growth was automatically monitored every 10 minutes as OD650 nm.
The relative growth yield and growth rate for each supplement was then averaged over the three independent repeats, and the standard deviation was calculated.

Where [1] appears, read: 168 h, read-out: Relative yield Average, 1 mg/L in medium, max OD650 nm relative to water controls.
The mark [2] stands for this setting: read-out: Relative growth rate Average, 1 mg/L in medium, first generation, relative to water controls.
Where [3] appears, read: 10 mg/L in medium, first generation, relative to water controls.

Where a name gives a salt, the structure may show the parent alone. Read-outs that look alike come from different tables or passages of the source.

Regarding `OC[C@H]1O[C@@](CO)(O[C@H]2O[C@H](CO)[C@@H](O)[C@H](O)[C@H]2O)[C@@H](O)[C@@H]1O` [Sucrose], the activity at 6000 µg/mL runs as follows: (168 h, read-out: Relative yield Average, 6 g/L in medium, max OD650 nm relative to water controls) above 105%; (read-out: Relative growth rate Average, 6 g/L in medium, first generation, relative to water controls) 95 to 105%.

For the compound `OB(O)O` [Supplement H3BO3, H3BO3], the “Relative growth rate Average” value (2.36 mg/L in medium, first generation, relative to water controls) was determined as 93.25%. Also, for the setting “2.36 mg/L in medium, max OD650 nm relative to water controls”, the “Relative yield Average” value amounted to 96.86%.

With `Cc1ncc(C[n+]2csc(CCO)c2C)c(N)n1` [Thiamine HCl], the activity at 1 µg/mL runs as follows: under setting [1], 95 to 105%; under setting [2], 95 to 105%. For the same compound, the activity at 10 µg/mL was above 105% (168 h, read-out: Relative yield Average, 10 mg/L in medium, max OD650 nm relative to water controls) and above 105% (read-out: Relative growth rate Average, 10 mg/L in medium, first generation, relative to water controls).

Turning to `O=c1cc[nH]c(=O)[nH]1` [Uracil], the activity at 0.1 µg/mL lay within 95 to 105% (168 h, read-out: Relative yield Average, 0.1 mg/L in medium, max OD650 nm relative to water controls) and 95 to 105% (read-out: Relative growth rate Average, 0.1 mg/L in medium, first generation, relative to water controls). Besides, the activity at 1 µg/mL reads like this: under setting [1], 101%; under setting [2], 94.8%.

With `[Cl-].[Cl-].[Zn+2]` [ZnCl2], under setting [3], the “Relative growth rate Average” value is given as 103.27%.

Consider `O.O.O.O.O.O.O.O=S(=O)([O-])[O-].[Zn+2]` [ZnSO4•7H2O], for which the “Relative growth rate Average” value runs as follows: (1.89 mg/L in medium, first generation, relative to water controls) 91.58%; (18.9 mg/L in medium, first generation, relative to water controls) 99.13%. Besides, the “Relative yield Average” value came to 191.76% (1.89 mg/L in medium, max OD650 nm relative to water controls) and 163.55% (18.9 mg/L in medium, max OD650 nm relative to water controls).

With `Nc1ccc(C(=O)O)cc1` [para-aminobenzoic acid], the activity at 0.2 µg/mL (168 h, read-out: Relative yield Average, 0.2 mg/L in medium, max OD650 nm relative to water controls) was in the range of 95 to 105% and the activity at 0.2 µg/mL (read-out: Relative growth rate Average, 0.2 mg/L in medium, first generation, relative to water controls) was above 105%. Also, the activity at 2 µg/mL by setting is: (168 h, read-out: Relative yield Average, 2 mg/L in medium, max OD650 nm relative to water controls) 95 to 105%; (read-out: Relative growth rate Average, 2 mg/L in medium, first generation, relative to water controls) 95 to 105%.

As for Calcium pantothenate, the “Relative growth rate Average” value (1 mg/L in medium, first generation, relative to water controls) was determined as 102.18% and the “Relative growth rate Average” value under setting [3] turned out to be 102.47%. Moreover, the “Relative yield Average” value by setting is: (1 mg/L in medium, max OD650 nm relative to water controls) 106.59%; (10 mg/L in medium, max OD650 nm relative to water controls) 98.99%.
